Assay results: ChEMBL document CHEMBL5154724, “Cathepsin D inhibitors based on tasiamide B derivatives with cell membrane permeability” (Bioorg Med Chem, 2022); call rule not given here
Where a name gives a salt, the structure may show the parent alone. *1 amine or outer side, *2 acyl side, *3 side chain or, on linkers, in order; H or OH if unused. Where a SMILES comes first, the peptide text is derived from it. [ ]: non-standard residue; d: D form. The star is where a group is joined. Ahppa(3S,4S) = O=C(C[C@H](O)[C@H](Cc1ccccc1)N[*:1])[*:2]; dNMeF = CN[C@H](Cc1ccccc1)C(=O)O; NMeQ = CN[C@@H](CCC(N)=O)C(=O)O; Cbz = O=C(OCc1ccccc1)*

Assays:
Cathepsin E = molecular target: T1, Cathepsin E (Homo sapiens, UniProt P14091); assay: Inhibition of Cathepsin E (unknown origin) using Mca-Gly-Lys-Pro-Ile-Leu-Phe-Phe-Arg-Leu-Lys-(Dnp)-D-Arg-NH2 as substrate incubated for 120 mins by fluorescence assay
T1 sequence (P14091 whole entry): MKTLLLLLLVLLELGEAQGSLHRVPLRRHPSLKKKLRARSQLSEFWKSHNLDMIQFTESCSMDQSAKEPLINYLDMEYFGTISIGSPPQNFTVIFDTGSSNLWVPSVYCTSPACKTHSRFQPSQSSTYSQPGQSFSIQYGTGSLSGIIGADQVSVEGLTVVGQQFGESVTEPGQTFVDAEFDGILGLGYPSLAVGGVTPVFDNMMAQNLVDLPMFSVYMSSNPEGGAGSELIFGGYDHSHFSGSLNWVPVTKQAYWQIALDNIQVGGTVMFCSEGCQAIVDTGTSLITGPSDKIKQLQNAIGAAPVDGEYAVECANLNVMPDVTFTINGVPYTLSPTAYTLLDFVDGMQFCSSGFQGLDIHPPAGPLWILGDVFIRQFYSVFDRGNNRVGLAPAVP

Cathepsin D = Cathepsin D (Homo sapiens, UniProt P07339); assay: Inhibition of recombinant human liver Cathepsin D using Mca-Gly-Lys-Pro-Ile-Leu-Phe-Phe-Arg-Leu-Lys-(Dnp)-D-Arg-NH2 as substrate incubated for 120 mins by fluorescence assay
[1] = Drug uptake in human MDA-MB-231 cells assessed as increase in internalization at 10 uM after 16 to 24 hrs by LTG/Hoechst 33258 staining based confocal laser scanning microscopy; assay type: ADME, cell-based; settings: mda-mb-231, 10 µM, time 16-24 hrs
HepG2 = assay: Antiproliferative activity against human HepG2 cells assessed as reduction in cell viability after 72 hrs by CCK-8 assay; assay type: functional, cell-based; settings: HepG2, 72 h
MDA-MB-231 [2] = assay: Antiproliferative activity against human MDA-MB-231 cells assessed as reduction in cell viability after 72 hrs by CCK-8 assay; assay type: functional, cell-based; settings: MDA-MB-231, 72 h
Beta-secretase 1 = Beta-secretase 1 (Homo sapiens, UniProt P56817); assay: Inhibition of BACE1 (unknown origin) using Mca-Ser-Glu-Val-Asn-Leu-Asp-Ala-Glu-Phe-Arg-Lys(Dnp)-Arg-Arg-NH2 as substrate incubated for 120 mins by fluorescence assay
MDA-MB-231 [3] = assay: Antiproliferative activity against human MDA-MB-231 cells assessed as reduction in cell viability at 10 uM after 72 hrs by CCK-8 assay relative to control; assay type: functional
A549 = assay: Antiproliferative activity against human A549 cells assessed as reduction in cell viability after 72 hrs by CCK-8 assay; assay type: functional, cell-based; settings: A549, 72 h
[4] = Drug uptake in human MDA-MB-231 cells assessed as increase in internalization at 10 uM after 3 to 24 hrs by LTG/Hoechst 33258 staining based confocal laser scanning microscopy; assay type: ADME, cell-based; settings: mda-mb-231, 10 µM, time 3-24 hrs
[5] = Drug uptake in human MDA-MB-231 cells assessed as increase in co-localization with lysosomal at 10 uM after 16 hrs by LTG/Hoechst 33258 staining based confocal laser scanning microscopy; assay type: ADME, cell-based; settings: mda-mb-231, 16 h

Sequence of Cathepsin D (P07339 65-162 limits assumed): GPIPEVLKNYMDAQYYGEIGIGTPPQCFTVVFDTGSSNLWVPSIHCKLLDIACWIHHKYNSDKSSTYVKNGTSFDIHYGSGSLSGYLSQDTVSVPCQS
Sequence of Cathepsin D (P07339 169-412 limits assumed): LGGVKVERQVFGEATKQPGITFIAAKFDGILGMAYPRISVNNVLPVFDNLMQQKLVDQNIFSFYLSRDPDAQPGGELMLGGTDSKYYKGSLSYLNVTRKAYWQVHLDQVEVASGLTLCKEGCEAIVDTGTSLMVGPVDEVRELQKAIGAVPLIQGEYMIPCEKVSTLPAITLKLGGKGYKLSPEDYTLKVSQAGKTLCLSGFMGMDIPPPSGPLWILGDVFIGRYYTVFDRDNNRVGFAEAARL
Sequence of Beta-secretase 1 (P56817 whole entry): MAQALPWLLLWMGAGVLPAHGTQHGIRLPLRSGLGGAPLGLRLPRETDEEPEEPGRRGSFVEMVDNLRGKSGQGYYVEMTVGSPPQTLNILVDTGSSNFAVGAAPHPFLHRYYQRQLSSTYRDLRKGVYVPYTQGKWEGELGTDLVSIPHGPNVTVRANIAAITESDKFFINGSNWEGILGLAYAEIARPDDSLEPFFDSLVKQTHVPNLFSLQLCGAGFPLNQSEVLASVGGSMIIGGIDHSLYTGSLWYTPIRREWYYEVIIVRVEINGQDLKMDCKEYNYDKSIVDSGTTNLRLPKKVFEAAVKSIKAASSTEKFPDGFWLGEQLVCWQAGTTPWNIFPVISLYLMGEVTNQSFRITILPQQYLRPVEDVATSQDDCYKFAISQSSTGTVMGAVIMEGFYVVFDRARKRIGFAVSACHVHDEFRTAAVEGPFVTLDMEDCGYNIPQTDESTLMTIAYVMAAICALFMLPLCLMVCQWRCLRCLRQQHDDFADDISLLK

Row | SMILES | IC50 (Cathepsin E) | IC50 (Cathepsin D) | Drug uptake [1] | IC50 (HepG2) | IC50 (MDA-MB-231 [2]) | IC50 (Beta-secretase 1) | inhibition at 10 µM (MDA-MB-231 [3]) | IC50 (A549) | Drug uptake [4] | Drug uptake [5]
1 | CC(C)C[C@H](NC(=O)C[C@H](O)[C@H](Cc1ccccc1)NC(=O)[C@H](CCC(N)=O)N(C)C(=O)[C@@H](NC(=O)OCc1ccccc1)C(C)C)C(=O)N[C@@H](C)C(=O)N(C)[C@H](Cc1ccc(OC(C)(C)C)cc1)C(=O)N1CCC[C@H]1C(=O)O | 187 nM | 19 nM | – | – | – | – | – | – | – | –
2 | COC(=O)[C@@H]1CCCN1C(=O)[C@@H](Cc1ccc(OC(C)(C)C)cc1)N(C)C(=O)[C@H](C)NC(=O)[C@H](CC(C)C)NC(=O)C[C@H](O)[C@H](Cc1ccccc1)NC(=O)[C@H](CCC(N)=O)N(C)C(=O)[C@@H](NC(=O)OCc1ccccc1)C(C)C | 105 nM | 18 nM | – | – | – | – | – | – | – | –
3 | CC(C)C[C@H](NC(=O)C[C@H](O)[C@H](Cc1ccccc1)NC(=O)[C@H](CCC(N)=O)N(C)C(=O)[C@@H](NC(=O)OCc1ccccc1)C(C)C)C(=O)N[C@@H](C)C(=O)N(C)[C@H](Cc1ccccc1)C(=O)N1CCC[C@H]1C(=O)NCCOCCOCCn1cc(CNC(=O)[C@H](CCCCNC(=O)[C@H](CCCCN)NC(=O)[C@H](CCCCN)NC(=O)[C@H](CCC(N)=O)NC(=O)[C@H](CO)NC(=O)CCN2c3ccccc3C(C)(C)[C@]23C=Cc2cc([N+](=O)[O-])ccc2O3)NC(=O)[C@H](CCCCN)NC(=O)[C@H](CCCCN)NC(=O)C(CCC(N)=O)NC(=O)[C@H](CO)NC(=O)CCN2c3ccccc3C(C)(C)[C@]23CCc2cc([N+](=O)[O-])ccc2O3)nn1 (some centres not stated) | 100 nM | 41 nM | Active | > 10000 nM | > 10000 nM | 1030 nM | 49% | > 10000 nM | – | –
4 | COc1cccc2c1C(=O)c1c(O)c3c(c(O)c1C2=O)C[C@@](O)(C(=O)CO)C[C@@H]3O[C@H]1C[C@H](N)[C@H](O)[C@H](C)O1 [DOXORUBICIN HYDROCHLORIDE] | – | – | – | – | 370 nM | – | 70% | 400 nM | – | –
5 | C#CCNC(=O)[C@H](CCCCNC(=O)[C@H](CCCCN)NC(=O)[C@H](CCCCN)NC(=O)[C@H](CCC(N)=O)NC(=O)[C@H](CO)NC(=O)CCN1c2ccccc2C(C)(C)[C@]12CCc1cc([N+](=O)[O-])ccc1O2)NC(=O)[C@H](CCCCN)NC(=O)[C@H](CCCCN)NC(=O)C(CCC(N)=O)NC(=O)[C@H](CO)NC(=O)CCN1c2ccccc2C(C)(C)[C@]12CCc1cc([N+](=O)[O-])ccc1O2 (some centres not stated) | – | – | – | – | – | – | – | – | Active | Active
6 | COC(=O)[C@@H]1CCCN1C(=O)[C@@H](Cc1ccccc1)N(C)C(=O)[C@H](C)NC(=O)[C@H](CC(C)C)NC(=O)C[C@H](O)[C@H](Cc1ccccc1)NC(=O)[C@H](CCC(N)=O)N(C)C(=O)[C@@H](NC(=O)OCc1ccccc1)C(C)C (Cbz-V[NMeQ][Ahppa(3S,4S)]LA[dNMeF]P-OMe) | – | – | – | > 10000 nM | > 10000 nM | – | 14% | > 10000 nM | – | –
7 | COC(=O)[C@@H]1CCCN1C(=O)[C@@H](Cc1ccc(O)cc1)N(C)C(=O)[C@H](C)NC(=O)[C@H](CC(C)C)NC(=O)C[C@H](O)[C@H](Cc1ccccc1)NC(=O)[C@H](CCC(N)=O)N(C)C(=O)[C@@H](NC(=O)OCc1ccccc1)C(C)C | 104 nM | 0.178 nM | – | > 10000 nM | > 10000 nM | – | 12% | > 10000 nM | – | –
8 | CC(C)C[C@H](NC(=O)C[C@H](O)[C@H](Cc1ccccc1)NC(=O)[C@H](CCC(N)=O)N(C)C(=O)[C@@H](NC(=O)OCc1ccccc1)C(C)C)C(=O)N[C@@H](C)C(=O)N(C)[C@H](Cc1ccccc1)C(=O)N1CCC[C@H]1C(=O)O | 120 nM | 4.89 nM | – | – | – | – | – | – | – | –
9 | CC(C)C[C@H](NC(=O)C[C@H](O)[C@H](Cc1ccccc1)NC(=O)[C@H](CCC(N)=O)N(C)C(=O)[C@@H](NC(=O)OCc1ccccc1)C(C)C)C(=O)N[C@@H](C)C(=O)N(C)[C@H](Cc1ccc(O)cc1)C(=O)N1CCC[C@H]1C(=O)NCCOCCOCCn1cc(CNC(=O)[C@H](CCCCNC(=O)[C@H](CCCCN)NC(=O)[C@H](CCCCN)NC(=O)[C@H](CCC(N)=O)NC(=O)[C@H](CO)NC(=O)CCN2c3ccccc3C(C)(C)[C@]23C=Cc2cc([N+](=O)[O-])ccc2O3)NC(=O)[C@H](CCCCN)NC(=O)[C@H](CCCCN)NC(=O)C(CCC(N)=O)NC(=O)[C@H](CO)NC(=O)CCN2c3ccccc3C(C)(C)[C@]23CCc2cc([N+](=O)[O-])ccc2O3)nn1 (some centres not stated) | 12 nM | 22 nM | Active | > 10000 nM | 9100 nM | 828 nM | 52% | > 10000 nM | – | –
